13 compounds from ChEMBL document CHEMBL4673264, “Discovery of natural TRPA1 activators through pharmacophore-based virtual screening and a biological assay” (Bioorg Med Chem Lett, 2021) can be followed below.

The target in assay [1] is T1, Transient receptor potential cation channel subfamily A member 1 (Homo sapiens, UniProt O75762). The experiment in a line: Agonist activity at TRPA1 (unknown origin) by calcium imaging assay.
Assay [2] concerns the target T1, Transient receptor potential cation channel subfamily A member 1. The experiment in a line: Agonist activity at TRPA1 (unknown origin) by calcium imaging assay relative to allyl isothiocyanate. The conditions noted are these: filed as agonist. Also on record: concentration or dose not given beside the values.

The EC50 is the concentration giving half of the maximal effect.

T1 sequence (O75762 whole entry): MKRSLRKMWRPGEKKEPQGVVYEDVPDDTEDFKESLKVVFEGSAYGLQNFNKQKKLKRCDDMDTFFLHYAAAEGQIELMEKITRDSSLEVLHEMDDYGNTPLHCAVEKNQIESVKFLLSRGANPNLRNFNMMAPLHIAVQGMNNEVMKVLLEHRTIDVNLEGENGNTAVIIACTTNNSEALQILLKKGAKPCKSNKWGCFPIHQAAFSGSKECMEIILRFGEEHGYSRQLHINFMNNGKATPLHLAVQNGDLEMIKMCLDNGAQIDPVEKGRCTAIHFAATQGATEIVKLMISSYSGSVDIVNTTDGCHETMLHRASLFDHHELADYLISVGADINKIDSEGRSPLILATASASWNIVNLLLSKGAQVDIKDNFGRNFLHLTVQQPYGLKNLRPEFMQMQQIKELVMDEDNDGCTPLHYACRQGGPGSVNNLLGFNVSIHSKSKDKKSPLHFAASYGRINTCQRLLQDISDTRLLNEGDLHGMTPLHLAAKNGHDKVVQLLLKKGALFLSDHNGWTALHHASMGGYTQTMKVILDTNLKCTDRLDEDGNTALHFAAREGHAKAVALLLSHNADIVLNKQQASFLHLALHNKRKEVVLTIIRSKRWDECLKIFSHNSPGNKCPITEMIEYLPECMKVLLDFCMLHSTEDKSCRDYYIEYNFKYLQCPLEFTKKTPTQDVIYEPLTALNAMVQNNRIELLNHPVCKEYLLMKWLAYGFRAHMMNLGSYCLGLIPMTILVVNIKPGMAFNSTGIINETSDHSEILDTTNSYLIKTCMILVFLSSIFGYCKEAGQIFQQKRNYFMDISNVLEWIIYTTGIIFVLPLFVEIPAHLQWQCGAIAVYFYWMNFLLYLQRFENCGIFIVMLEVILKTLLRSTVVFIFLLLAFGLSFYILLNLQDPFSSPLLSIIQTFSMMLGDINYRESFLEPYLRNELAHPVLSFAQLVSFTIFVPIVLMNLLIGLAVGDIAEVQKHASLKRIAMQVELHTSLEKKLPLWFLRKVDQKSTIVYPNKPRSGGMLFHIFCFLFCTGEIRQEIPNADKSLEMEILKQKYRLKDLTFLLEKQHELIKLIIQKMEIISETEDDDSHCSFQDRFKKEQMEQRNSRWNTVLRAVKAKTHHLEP

As for `Cc1cccc(O)c1C`, the EC50 in assay [1] amounted to 86 µM. In assay [2], the Activity is 82%. `COc1cc(O)c(CC=C(C)C)c2c1C(=O)CC(c1ccc(O)cc1)O2` (stereo not drawn): in assay [2], the Activity worked out at 90%.

With `Cc1cccc(O)c1O`, the EC50 in assay [1] was found to be 2.83 µM. Besides, the Activity in assay [2] was determined as 151%. For `Cc1ccc(O)c(O)c1`, in that order: 11.7 µM and 107%.

Turning to `COc1cc(C(=O)C(O)CO)ccc1O` (stereo not drawn), the Activity in assay [2] was found to be 63%. Turning to `C=Cc1ccc(O)c(OC)c1`, in assay [1], the EC50 was 82.8 µM. Further, in assay [2], the Activity was determined as 50%. For `CCc1ccc(O)c(OC)c1`, in that order: 101 µM and 74%. For `CCc1ccc(O)c(O)c1`, the EC50 in assay [1] was found to be 8.69 µM. Besides, the Activity in assay [2] worked out at 99%.

Take `C=CCc1ccc(O)c(OC)c1` [EUGENOL]: the EC50 in assay [1] amounted to 116 µM. In assay [2], the Activity was 122%. Consider `Cc1ccc(C(C)C)c(O)c1`, for which the Activity in assay [2] stood at 140%. Regarding `c1ccc2[nH]ccc2c1` [INDOLE], the EC50 in assay [1] came out at 75.2 µM. Also, in assay [2], the Activity was determined as 111%. The corresponding values for `Oc1ccccc1Cl` [2-CHLOROPHENOL] are 501 µM and 54%. With `C/C=C/c1ccc(O)c(OC)c1`, in assay [1], the EC50 was 149 µM. The Activity in assay [2] is 139%.
